According to US20240398773A1, “COMPOSITIONS COMPRISING OTESECONAZOLE” (Mycovia Pharmaceuticals, Inc., priority 2021, published 2024):

System: Candida species
Experiment: Phase 2a dose-ranging study in moderate-to-severe acute VVC, effective therapeutic cure
Assay type: in vivo, human
Settings: comparator arm, single dose of fluconazole 150 mg; Per Protocol population
Protocol: Oteseconazole has previously been evaluated in a Phase 2a multi-center, randomized, double-blind, active-controlled, parallel-group, dose-ranging study in patients with moderate-to-severe acute VVC. A total of 55 subjects with moderate-to-severe acute VVC (severity score ≥6 and a positive fungal KOH test) participated in the study across 4 dose groups: 1) oteseconazole 300 mg qd for 3 days: 2) 600 mg qd for 3 days: 3) 600 mg bid for 3 days; or 4) a single dose of fluconazole 150 mg followed by matching placebo. […] No safety signals of clinical concern were observed from the safety assessments.
The efficacy of oteseconazole in the treatment of moderate-to-severe acute VVC was evaluated at the TOC visit in the Per Protocol population at the Day 28 test of cure (TOC) visit was, 87%, 86%, 86%, and 75% of subjects receiving the low, mid-, or high-dose oteseconazole or comparator arm of fluconazole, respectively, achieved an effective therapeutic cure (defined as having a total clinical signs and symptoms severity score of ≤1 and a negative culture for Candida species) in the Per Protocol population

OC(Cn1cncn1)(Cn1cncn1)c1ccc(F)cc1F [fluconazole, reference compound]
subjects achieving effective therapeutic cure at Day 28 TOC visit: 75%
